In assay [1] the target is T1, MacB (Acinetobacter baumannii, UniProt A0A0D8G707).
T1 construct: full length (664 residues inferred: stop at Leu655 removes C-terminal 10), N-terminal His6 tag, E. coli BL21(DE3), UDM-solubilized homodimer
The assay can be described thus: X-ray crystal structure of complex ([…] Å). Conditions: co-crystallized with 10 mM ADPβS, 2 mM MgCl2; composite nucleotide-binding sites at NBD dimer interface.

For assay [2], the target named is MacB from Acinetobacter baumannii (Acinetobacter baumannii). The assay can be described thus: crystal structure; MacB in 0.05% UDM, 10 mM ADPβS and 2 mM MgCl2 added; sitting drop vapour diffusion at 25 °C, 1.2–1.3 M sodium citrate, 100 mM Na-HEPES pH 7.2; Se-Met crystal with 2 mM ATP instead of ADPβS; 3.4 Å.

For `Nc1ncnc2c1ncn2[C@@H]1O[C@H](COP(=O)(O)OP(=O)(O)S)[C@@H](O)[C@H]1O` (some centres unmarked) [ADPβS], the “X-ray crystal structure of complex (3.4 Å)” value in assay [1] is reported as “MacB was crystallized in the presence of adenosine-5′-(β-thio)-diphosphate (ADPβS)”.

For orientation: stoichiometry N means a count of units in the complex or per binding partner. Consider “MacB from Acinetobacter baumannii (from UniProt A0A0D8G707 1-664) (natural protein)”, for which the stoichiometry N in assay [2] stood at 2.
